Data reported in patent US6686343B1, “Triazolopurine derivatives, pharmaceutical compositions containing the derivatives, and adenosine A3 receptor affinitive agents” (Otsuka Pharmaceutical Factory, Inc., priority 1999, dated 2004).

| Compound | melting point |
| --- | --- |
| CCOP(=O)(Cc1nc2nc[nH]c2c2nc(-c3ccc(-c4ccccc4)cc3)nn12)OCC | 188 to 192 °C |
| CCOP(=O)(CCc1nc2nc[nH]c2c2nc(-c3ccc(-c4ccccc4)cc3)nn12)OCC | ≥ 110 °C |
| CCOP(=O)(Cc1nc2nc[nH]c2c2nc(-c3ccc(C(C)(C)C)cc3)nn12)OCC | 162 to 166 °C |
| CCOP(=O)(Cc1nc2nc[nH]c2c2nc(-c3ccc(C(F)(F)F)cc3)nn12)OCC | 196 to 198 °C |
| CCOP(=O)(CCCc1nc2nc[nH]c2c2nc(-c3ccc(-c4ccccc4)cc3)nn12)OCC | 175 to 178 °C |
| CCOP(=O)(O)Cc1nc2nc[nH]c2c2nc(-c3ccc(C(F)(F)F)cc3)nn12 | 268 to 270 °C |
| CCOP(=O)(O)Cc1nc2nc[nH]c2c2nc(-c3ccc(-c4ccccc4)cc3)nn12 | 274 to 277 °C |
| COCCc1nc2nc[nH]c2c2nc(-c3ccccc3)nn12 (hydrate or solvate) [Example 13, 5-(2-methoxyethyl)-8-phenyl-1H-1,2,4-triazolo[5,1-i]purine] | 217.5 to 218.5 °C |
| COCc1nc2nc[nH]c2c2nc(-c3ccc(-c4ccccc4)cc3)nn12 [Example 2, 8-(4-biphenylyl)-5-methoxymethyl-1H-1,2,4-triazolo[5,1-i]purine] | ≥ 280 °C |
| CSCCc1nc2nc[nH]c2c2nc(-c3ccc(-c4ccccc4)cc3)nn12 [Example 4, 8-(4-biphenylyl)-5-(2-methylthioethyl)-1H-1,2,4-triazolo[5,1-i]purine] | 249 to 251 °C |
| CCOCc1nc2nc[nH]c2c2nc(-c3cc(OC)c(OC)c(OC)c3)nn12 [Example 5, 5-ethoxymethyl-8-(3,4,5-trimethoxyphenyl)-1H-1,2,4-triazolo[5,1-i]purine] | 254 to 255.5 °C |
| COCc1nc2nc[nH]c2c2nc(-c3cc(OC)c(OC)c(OC)c3)nn12 [Example 6, 5-methoxymethyl-8-(3,4,5-trimethoxyphenyl)-1H-1,2,4-triazolo[5,1-i]purine] | ≥ 280 °C |
| CCCOc1ccc(-c2nc3c4[nH]cnc4nc(COCC)n3n2)cc1 [Example 8, 5-ethoxymethyl-8-(4-n-propoxyphenyl)-1H-1,2,4-triazolo[5,1-i]purine] | 262 to 263 °C |
| CCCOc1ccc(-c2nc3c4[nH]cnc4nc(COC)n3n2)cc1 [Example 9, 5-methoxymethyl-8-(4-n-propoxyphenyl)-1H-1,2,4-triazolo[5,1-i]purine] | ≥ 280 °C |
| CCCOc1ccc(-c2nc3c4[nH]cnc4nc(CCOC)n3n2)cc1 [Example 10, 5-(2-methoxyethyl)-8-(4-n-propoxyphenyl)-1H-1,2,4-triazolo[5,1-i]purine] | 231.5 to 232.5 °C |
| CCOCc1nc2nc[nH]c2c2nc(-c3ccccc3)nn12 [Example 11, 5-ethoxymethyl-8-phenyl-1H-1,2,4-triazolo[5,1-i]purine] | 247 to 249 °C |
| COCc1nc2nc[nH]c2c2nc(-c3ccccc3)nn12 [Example 12, 5-methoxymethyl-8-phenyl-1H-1,2,4-triazolo[5,1-i]purine] | ≥ 280 °C |
| CCOCc1nc2nc[nH]c2c2nc(-c3ccc(C(C)(C)C)cc3)nn12 [Example 14, 8-(4-t-butylphenyl)-5-ethoxymethyl-1H-1,2,4-triazolo[5,1-i]purine] | 243 to 244 °C |
| COCc1nc2nc[nH]c2c2nc(-c3ccc(C(C)(C)C)cc3)nn12 [Example 15, 8-(4-t-butylphenyl)-5-methoxymethyl-1H-1,2,4-triazolo[5,1-i]purine] | ≥ 280 °C |
| COCCc1nc2nc[nH]c2c2nc(-c3ccc(C(C)(C)C)cc3)nn12 [Example 16, 8-(4-t-butylphenyl)-5-(2-methoxyethyl)-1H-1,2,4-triazolo[5,1-i]purine] | 237 to 239 °C |
| CSCCc1nc2nc[nH]c2c2nc(-c3ccc(C(C)(C)C)cc3)nn12 [Example 17, 8-(4-t-butylphenyl)-5-(2-methylthioethyl)-1H-1,2,4-triazolo[5,1-i]purine] | 229 to 231 °C |
| COC(=O)CCCc1nc2nc[nH]c2c2nc(-c3ccccc3)nn12 [Example 18, 5-(3-methoxycarbonylpropyl)-8-phenyl-1H-1,2,4-triazolo[5,1-i]purine] | 228 to 230 °C |
| COc1cc(-c2nc3c4[nH]cnc4nc(CCSC)n3n2)cc(OC)c1OC [Example 19, 5-(2-methylthioethyl)-8-(3,4,5-trimethoxyphenyl)-1H-1,2,4-triazolo[5,1-i]purine] | 233 to 234 °C |

| Compound | melting point |
| --- | --- |
| CCOC(=O)CCc1nc2nc[nH]c2c2nc(-c3ccc(-c4ccccc4)cc3)nn12 [Example 20, 8-(4-biphenylyl)-5-(2-ethoxycarbonylethyl)-1H-1,2,4-triazolo[5,1-i]purine] | 241.5 to 244 °C |
| COC(=O)CCCc1nc2nc[nH]c2c2nc(-c3ccc(-c4ccccc4)cc3)nn12 [Example 21, 8-(4-biphenylyl)-5-(3-methoxycarbonylpropyl)-1H-1,2,4-triazolo[5,1-i]purine] | 243 to 245.5 °C |
| CCOC(=O)CCCCc1nc2nc[nH]c2c2nc(-c3ccc(-c4ccccc4)cc3)nn12 [Example 22, 8-(4-biphenylyl)-5-(4-ethoxycarbonylbutyl)-1H-1,2,4-triazolo[5,1-i]purine] | 241 to 243 °C |
| COC(=O)CCCc1nc2nc[nH]c2c2nc(-c3ccc(C(C)(C)C)cc3)nn12 [Example 23, 8-(4-t-butylphenyl)-5-(3-methoxycarbonylpropyl)-1H-1,2,4-triazolo[5,1-i]purine] | 169 to 172.5 °C |
| COCc1nc2nc[nH]c2c2nc(-c3ccc(C(F)(F)F)cc3)nn12 [Example 24, 5-methoxymethyl-8-(4-trifluoromethylphenyl)-1H-1,2,4-triazolo[5,1-i]purine] | ≥ 280 °C |
| CCOCc1nc2nc[nH]c2c2nc(-c3ccc(C(F)(F)F)cc3)nn12 [Example 25, 5-ethoxymethyl-8-(4-trifluoromethylphenyl)-1H-1,2,4-triazolo[5,1-i]purine] | ≥ 280 °C |
| COCCc1nc2nc[nH]c2c2nc(-c3ccc(C(F)(F)F)cc3)nn12 [Example 26, 5-(2-methoxyethyl)-8-(4-trifluoromethylphenyl)-1H-1,2,4-triazolo[5,1-i]purine] | ≥ 256 °C (dec.) |
| CSCCc1nc2nc[nH]c2c2nc(-c3ccc(C(F)(F)F)cc3)nn12 [Example 27, 5-(2-methylthioethyl)-8-(4-trifluoromethylphenyl)-1H-1,2,4-triazolo[5,1-i]purine] | ≥ 255 °C (dec.) |
| COCCc1nc2nc[nH]c2c2nc(-c3ccc(Cl)cc3)nn12 [Example 28, 8-(4-chlorophenyl)-5-(2-methoxyethyl)-1H-1,2,4-triazolo[5,1-i]purine] | ≥ 278 °C (dec.) |
| CSCCc1nc2nc[nH]c2c2nc(-c3ccc(Cl)cc3)nn12 [Example 29, 8-(4-chlorophenyl)-5-(2-methylthioethyl)-1H-1,2,4-triazolo[5,1-i]purine] | ≥ 257 °C (dec.) |
| COC(=O)CCCc1nc2nc[nH]c2c2nc(-c3ccc(Cl)cc3)nn12 [Example 30, 8-(4-chlorophenyl)-5-(3-methoxycarbonylpropyl)-1H-1,2,4-triazolo[5,1-i]purine] | 261 to 262.5 °C |
| CC(C)(C)c1ccc(-c2nc3c4[nH]cnc4nc(CCCC(=O)O)n3n2)cc1 [Example 35, 8-(4-t-butylphenyl)-5-(3-carboxypropyl)-1H-1,2,4-triazolo[5,1-i]purine] | ≥ 280 °C |
| C[S+]([O-])CCc1nc2nc[nH]c2c2nc(-c3ccc(Cl)cc3)nn12 (stereo not shown) [Example 38, 8-(4-chlorophenyl)-5-(2-methylsulfinylethyl)-1H-1,2,4-triazolo[5,1-i]purine] | ≥ 218 °C (dec.) |
| C[S+]([O-])CCc1nc2nc[nH]c2c2nc(-c3ccc(C(C)(C)C)cc3)nn12 (stereo not shown) [Example 39, 8-(4-t-butylphenyl)-5-(2-methylsulfinylethyl)-1H-1,2,4-triazolo[5,1-i]purine] | ≥ 162 °C (dec.) |
| C[S+]([O-])CCc1nc2nc[nH]c2c2nc(-c3ccc(C(F)(F)F)cc3)nn12 (stereo not shown) [Example 40, 5-(2-methylsulfinylethyl)-8-(4-trifluoromethylphenyl)-1H-1,2,4-triazolo[5,1-i]purine] | ≥ 203 °C (dec.) |
| CS(=O)(=O)CCc1nc2nc[nH]c2c2nc(-c3ccc(Cl)cc3)nn12 [Example 42, 8-(4-chlorophenyl)-5-(2-methylsulfonylethyl)-1H-1,2,4-triazolo[5,1-i]purine] | ≥ 244 °C (dec.) |
| CC(C)(C)c1ccc(-c2nc3c4[nH]cnc4nc(CCS(C)(=O)=O)n3n2)cc1 [Example 43, 8-(4-t-butylphenyl)-5-(2-methylsulfonylethyl)-1H-1,2,4-triazolo[5,1-i]purine] | ≥ 201 °C (dec.) |
| CS(=O)(=O)CCc1nc2nc[nH]c2c2nc(-c3ccc(C(F)(F)F)cc3)nn12 [Example 44, 5-(2-methylsulfonylethyl)-8-(4-trifluoromethylphenyl)-1H-1,2,4-triazolo[5,1-i]purine] | ≥ 261 °C (dec.) |
| c1ccc(-c2ccc(-c3nc4c5[nH]cnc5nc(C5CCCCC5)n4n3)cc2)cc1 [Example 45, 8-(4-biphenylyl)-5-cyclohexyl-1H-1,2,4-triazolo[5,1-i]purine] | ≥ 280 °C |
| c1ccc(-c2ccc(-c3nc4c5[nH]cnc5nc(C5CCCC5)n4n3)cc2)cc1 [Example 46, 8-(4-biphenylyl)-5-cyclopentyl-1H-1,2,4-triazolo[5,1-i]purine] | ≥ 280 °C |
| FC(F)(F)c1nc2nc[nH]c2c2nc(-c3ccc(-c4ccccc4)cc3)nn12 [Example 47, 8-(4-biphenylyl)-5-trifluoromethyl-1H-1,2,4-triazolo[5,1-i]purine] | ≥ 280 °C |
| CSCc1nc2nc[nH]c2c2nc(-c3ccc(-c4ccccc4)cc3)nn12 [Example 48, 8-(4-biphenylyl)-5-methylthiomethyl-1H-1,2,4-triazolo[5,1-i]purine] | 284 to 286 °C |
| CCSCc1nc2nc[nH]c2c2nc(-c3ccc(-c4ccccc4)cc3)nn12 [Example 49, 8-(4-biphenylyl)-5-ethylthiomethyl-1H-1,2,4-triazolo[5,1-i]purine] | 264 to 266 °C |
